Assay results from ChEMBL document CHEMBL1201862, “PubChem BioAssay data set” (2004).
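Compound exposure: 48 hours, 5 concentrations, 96-well plates. Here, GI50 denotes the concentration required for 50% inhibition of growth.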 Calls of active or inactive are those of the source. Rule as the data show it: active = GI50 up to about 1.1 µM and inactive = higher.

Assays:
Assay in all cases: inhibition of tumour cell growth, NCI panel, 48 h
[1] = system: A498
[2] = system: CAKI-1
[3] = system: HL-60
[4] = system: Hs-578T
[5] = system: IGROV-1
[6] = system: LOX IMVI
[7] = system: MDA-MB-231
[8] = system: MOLT-4
[9] = system: NCI-H226
[10] = system: OVCAR-3
[11] = system: OVCAR-5
[12] = system: OVCAR-8
[13] = system: RPMI-8226
[14] = system: SF-539
[15] = system: SK-MEL-2
[16] = system: SNB-75
[17] = system: SW-620
[18] = system: T47D
[19] = system: TK-10
[20] = system: UACC-62

Measured: GI50

O=C1C=C(NCCc2ccccc2)c2ccccc2C1=O
inactive: [1] 3.71 µM | [2] 9.48 µM | [3] 1.69 µM | [4] 2.08 µM | [5] 7.28 µM | [6] 1.43 µM | [7] 5.86 µM | [8] 7.33 µM | [9] 2.06 µM | [10] 1.44 µM | [11] 1.98 µM | [12] 6.38 µM | [13] 14.8 µM | [14] 2.19 µM | [15] 1.91 µM | [16] 1.69 µM | [17] 1.85 µM | [18] 16.7 µM | [19] 14.2 µM | [20] 1.79 µM

CCCCCCCCCC/C=C/CC(=O)SCCNC(=O)CCNC(=O)[C@@H](O)C(C)(C)COP(=O)(O)OP(=O)(O)OCC1OC(n2cnc3c(N)ncnc32)C(O)C1OP(=O)(O)O (some centres not stated)
inactive: [1] > 10 µM | [2] > 10 µM | [3] > 10 µM | [4] > 10 µM | [5] > 10 µM | [6] > 10 µM | [7] > 10 µM | [8] > 10 µM | [9] > 10 µM | [10] > 10 µM | [11] > 10 µM | [12] > 10 µM | [13] > 10 µM | [14] > 10 µM | [16] > 10 µM | [17] > 10 µM | [18] > 10 µM | [19] > 10 µM | [20] > 10 µM

COc1ccccc1C1SCC(=O)N1c1ccc(-n2c(-c3ccccc3)nc3ccccc3c2=O)cc1 (configuration not stated)
inactive: [1] 36 µM | [2] 82 µM | [3] > 10 µM | [4] 39.4 µM | [5] 46.6 µM | [6] 77.8 µM | [7] 47.6 µM | [8] 28.8 µM | [9] 74.1 µM | [10] > 100 µM | [11] > 100 µM | [12] 60.4 µM | [13] > 100 µM | [14] > 100 µM | [15] > 100 µM | [16] 3.51 µM | [17] 63.5 µM | [18] 12.9 µM | [19] > 100 µM | [20] 29.2 µM

CCOC(=O)Nc1ccc(C)c(NC(=O)OCC)c1
inactive: [1] > 100 µM | [2] > 100 µM | [3] > 100 µM | [4] > 100 µM | [5] 55.6 µM | [6] > 100 µM | [7] > 100 µM | [8] > 100 µM | [9] > 100 µM | [10] > 100 µM | [11] > 100 µM | [12] > 100 µM | [13] > 100 µM | [14] > 100 µM | [15] > 100 µM | [16] > 100 µM | [17] > 100 µM | [18] > 100 µM | [19] > 100 µM | [20] > 100 µM

CC(c1ccccc1)n1c2ccccc2c2c(N)ncnc21 (configuration not stated)
inactive: [1] 15.7 µM | [2] 16.1 µM | [3] 23.9 µM | [4] 18 µM | [5] 18.9 µM | [6] 17.5 µM | [7] 19.1 µM | [8] 23 µM | [10] 16.2 µM | [11] 18.2 µM | [12] 17.1 µM | [13] 42.4 µM | [14] 17.1 µM | [15] 23.7 µM | [16] 1.4 µM | [17] 22.6 µM | [18] 15.5 µM | [19] 17.1 µM

O=C1CCC2CCC1C2 (configuration not stated)
inactive: [1] > 100 µM | [2] > 100 µM | [3] > 100 µM | [4] > 100 µM | [6] > 100 µM | [7] > 100 µM | [8] > 100 µM | [9] > 100 µM | [10] > 100 µM | [11] > 100 µM | [12] > 100 µM | [13] > 100 µM | [14] > 100 µM | [15] > 100 µM | [16] > 100 µM | [18] > 100 µM | [19] > 100 µM | [20] > 100 µM

O=C(/C=C/c1cccs1)c1ccc(Cl)s1
inactive: [1] 55.7 µM | [2] 83.4 µM | [3] 22.1 µM | [4] 46.7 µM | [5] > 10 µM | [7] 40.3 µM | [8] 23.8 µM | [9] 28.7 µM | [11] 54.3 µM | [12] 37.9 µM | [13] 17.5 µM | [14] 28.6 µM | [15] > 100 µM | [16] 56 µM | [17] 23.3 µM | [18] 35.1 µM | [19] > 100 µM | [20] 45 µM

Cc1cc(=O)nc(Sc2ccc([N+](=O)[O-])cc2[N+](=O)[O-])[nH]1
inactive: [1] > 100 µM | [2] 15.1 µM | [3] 3.33 µM | [4] 37.8 µM | [5] 80.2 µM | [6] 2.81 µM | [7] 23.2 µM | [8] 7.59 µM | [9] 19.7 µM | [10] 17 µM | [11] 17.9 µM | [12] 15.9 µM | [13] 3.9 µM | [15] 20.6 µM | [16] 1.53 µM | [17] 3.72 µM | [18] 17.5 µM | [19] 15.8 µM | [20] 17.3 µM

O=S(=O)(Oc1ccc2oc3ccccc3c2c1-c1c(OS(=O)(=O)C(F)(F)F)ccc2oc3ccccc3c12)C(F)(F)F
inactive: [1] > 100 µM | [2] > 100 µM | [3] 8.28 µM | [4] > 100 µM | [5] > 100 µM | [6] > 100 µM | [7] > 100 µM | [8] > 100 µM | [9] > 100 µM | [10] > 100 µM | [11] > 100 µM | [12] > 100 µM | [13] > 100 µM | [14] > 100 µM | [15] > 100 µM | [17] > 100 µM | [18] > 100 µM | [19] > 100 µM | [20] > 100 µM

N#CCCN(CCC#N)c1ccc(/C=C2\N=C(c3ccccc3)N(c3ccc(Cl)cc3)C2=O)cc1
inactive: [1] > 100 µM | [3] > 100 µM | [4] 20.6 µM | [5] > 100 µM | [6] 2.5 µM | [7] > 100 µM | [8] > 100 µM | [9] > 100 µM | [10] > 100 µM | [11] > 100 µM | [12] > 100 µM | [13] > 100 µM | [14] > 100 µM | [15] 76.6 µM | [17] > 100 µM | [18] > 100 µM | [19] > 100 µM | [20] 39.7 µM

O=C1C(Br)=C(C2=CC(=P(c3ccccc3)(c3ccccc3)c3ccccc3)C=C2)C(=O)C(Br)=C1C1=CC(=P(c2ccccc2)(c2ccccc2)c2ccccc2)C=C1
inactive: [1] > 100 µM | [2] > 100 µM | [3] > 100 µM | [4] > 100 µM | [5] 40.3 µM | [6] > 100 µM | [7] 42.1 µM | [8] > 100 µM | [10] 40.2 µM | [11] 17.9 µM | [12] > 100 µM | [13] > 100 µM | [14] > 100 µM | [15] > 100 µM | [16] > 100 µM | [17] 19.4 µM | [18] > 100 µM | [19] 30.3 µM | [20] > 100 µM

CCOC(=O)Cc1cc(=O)[nH]c(-n2[nH]c(C)c(CCO)c2=O)n1
inactive: [1] > 100 µM | [2] > 100 µM | [3] > 100 µM | [4] > 100 µM | [5] > 100 µM | [6] > 100 µM | [7] > 100 µM | [9] > 100 µM | [10] > 100 µM | [11] > 100 µM | [12] > 100 µM | [13] > 100 µM | [14] > 100 µM | [15] > 100 µM | [17] > 100 µM | [18] > 100 µM | [19] > 100 µM | [20] > 100 µM

c1ccc2nn(C3CCCO3)nc2c1 (configuration not stated)
inactive: [1] > 100 µM | [2] > 100 µM | [3] > 100 µM | [4] > 100 µM | [5] > 100 µM | [7] > 100 µM | [8] > 100 µM | [9] > 100 µM | [10] > 100 µM | [11] > 100 µM | [12] > 100 µM | [14] > 100 µM | [15] > 100 µM | [16] > 100 µM | [18] > 100 µM | [19] > 100 µM | [20] > 100 µM

C=CCN1CCC(c2cc(C(=O)OCC)[nH]c2-c2cc(C)no2)C1=O (configuration not stated)
inactive: [1] > 100 µM | [2] > 100 µM | [3] 76.2 µM | [4] > 100 µM | [5] > 100 µM | [6] > 100 µM | [7] > 100 µM | [8] 79.6 µM | [9] > 100 µM | [10] > 100 µM | [11] > 100 µM | [12] > 100 µM | [13] > 100 µM | [14] > 100 µM | [15] > 100 µM | [16] 94.8 µM | [17] > 100 µM | [18] > 100 µM | [20] > 100 µM
